In US12134607B2, “Crystals of tetrahydronaphthyl urea derivative” (MOCHIDA PHARMACEUTICAL CO., LTD., priority 2017, dated 2024):
≈ marks a conversion by molar mass, not a printed value.

Assays:
[1] = Safety observation in pharmacology experiments 3 and 4 in rats; assay type: in vivo; details: oral administration
Description: (Pharmacology Experiment 3): Inhibitory Effect on NGF-Induced Vascular Permeability Increase in Rats
The inhibitory activity against TrkA in vivo was evaluated. Clipped back male Sprague-Dawley rats (CD(SD)IGS rats, Charles River, Japan) were orally administered test compound (1) dissolved or suspended in a solvent (dose volume: 5 mL/kg). Vehicle controls were treated orally with vehicle. […] A 200 μL of the formamide extract was transferred to a 96-well plate (Nunc), and the absorbance (wavelength: 620 nm) of Evans blue extracted into formamide was measured using SpectraMax (Molecular Device). […]
The analgesic effect of the test compound (1) was evaluated in a CFA-induced rat model. […]
Measurements were made 7 days after CFA administration. After calming the animals to the measurement environment for at least 1 hour, the footpads were stimulated with von Frey filaments according to the Dixon up-down method (Journal of Neuroscience Methods, Vol. 53, pp. 55-63, 1994), and then 50% threshold (g) was calculated by the following equation. […]

human TrkA protein = human TrkA protein (Homo sapiens (Human), UniProt P04629); test: Evaluation on binding activity against human TrkA protein (TrkA LanthaScreen Eu Kinase Binding Assay)
human TrkA protein, sequence (P04629 33-796): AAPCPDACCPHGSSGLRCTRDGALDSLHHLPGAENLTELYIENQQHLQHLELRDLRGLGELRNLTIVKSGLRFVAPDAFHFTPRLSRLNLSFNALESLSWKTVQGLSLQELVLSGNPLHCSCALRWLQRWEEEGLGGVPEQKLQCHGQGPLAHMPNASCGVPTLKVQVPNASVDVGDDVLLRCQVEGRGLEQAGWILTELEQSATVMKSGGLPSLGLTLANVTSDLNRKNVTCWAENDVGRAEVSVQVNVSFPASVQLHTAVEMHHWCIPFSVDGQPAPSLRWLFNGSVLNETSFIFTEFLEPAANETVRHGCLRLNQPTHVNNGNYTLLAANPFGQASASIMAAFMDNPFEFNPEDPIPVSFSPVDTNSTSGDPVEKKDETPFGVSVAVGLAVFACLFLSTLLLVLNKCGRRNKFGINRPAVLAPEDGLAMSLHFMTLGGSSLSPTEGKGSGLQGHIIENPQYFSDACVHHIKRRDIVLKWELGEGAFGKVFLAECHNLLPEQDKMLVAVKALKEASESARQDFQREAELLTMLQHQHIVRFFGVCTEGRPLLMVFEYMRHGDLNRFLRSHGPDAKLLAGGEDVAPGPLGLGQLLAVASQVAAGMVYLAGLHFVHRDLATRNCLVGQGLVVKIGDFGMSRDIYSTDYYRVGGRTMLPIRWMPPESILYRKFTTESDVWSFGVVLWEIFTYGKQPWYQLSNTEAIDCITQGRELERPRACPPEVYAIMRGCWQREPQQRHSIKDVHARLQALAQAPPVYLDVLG
Description: (Pharmacology Experiment 1): Evaluation on Binding Activity Against Human TrkA Protein
Measurements were made using TrkA LanthaScreen™ Eu Kinase Binding Assay (ThermoFisher SCIENTIFIC). Into 384 well plates (Corning), a 2.5 μL solution having each concentration of the test compound (1) diluted in Kinase buffer (ThermoFisher SCIENTIC) and a 2.5 μL having 15 nM TrkA enzyme (ThermoFisher SCIENTIFIC) were added. In addition, a 5 μL having 3 nM Eu-anti-His Tag […] (ThermoFisher SCIENTIFIC) and 5 μL having 30 nM Kinase™ Tracer 236 (ThermoFisher SCIENTIFIC) were added, and allowed to react at room temperature for 60 minutes. After the reaction, the fluorescence ratio was calculated as the binding amount of the test compound (1) with TrkA enzyme, by measuring the fluorescence intensity (Emission wavelength 615 nm) and TR-FRET (Emission wavelength 665 nm) of Europium by the excitation wavelength of 340 nm using EnVision 2100 (PerkinElmer). […]
The inhibitory activity of each crystal of the test compound (1), which is 1-((1R,2R)-2-hydroxy-4,4-dimethyl-1,2,3,4-tetrahydronaphthalen-1-yl)-3-(5-methyl-6-(2-methylpyrimidin-5-yl)-2-phenylpyridin-3-yl)urea can be assessed by IC50 value.

[2] = Photostability test according to ICH Q1B; assay type: physicochemical
Description: (Test Example 3) Photostability Test
The type I (Example 2), III (Example 3), V (Example 4), and VI (Example 5) crystals (each about 20 mg) of 1-((1R,2R)-2-hydroxy-4,4-dimethyl-1,2,3,4-tetrahydronaphthalen-1-yl)-3-(5-methyl-6-(2-methylpyrimidin-5-yl)-2-phenylpyridin-3-yl)urea obtained in the above Examples 2 to 5 were placed in a transparent plastic container and covered, and were subjected to photostability test according to the ICH Q1B (Guidelines on Photostability Testing of New Active Substances and Medicinal Products) described in Table 8 (Here, the photostability test samples were stored at about 25° C. under separate lamps which respectively emits visible light and UV-A light so that the total light exposure should be 1.2 million lux hours and 200 W hours/m^2 or more, respectively. A 5-day study should be designated as “0.5 ICH” and a 10-day study as “1 ICH”). […] After completion of the test, the retrieved sample was confirmed on the purity by high performance liquid chromatography and on the crystal form by powder X-ray diffraction analysis as in the Examples.

Storage stability test = assay type: physicochemical
Description: For the stability test, approximately 20 mg of the test sample was stored at 25° C./60% RH or at 40° C./75% RH in open or closed condition for 1 month using a small environmental tester SH-641 (manufactured by Espec), and changes in purity and in crystalline form were observed.
For purity measurement, equipment of Waters ACQUITY UPLC H-Class (manufactured by Waters) and column of Waters ACQUITY BEH C18 (particle diameter […], size 2.1×50 mm) are used. For the mobile phase, 10 mmol/L ammonium bicarbonate buffer pH 9.0 and acetonitrile were used; and the test sample solution at 100 μg/mL in the mixture solvent of THF (tetrahydrofuran):10 mmol/L ammonium bicarbonate buffer (20:80) was prepared.
(Test Example 2) Storage Stability Test
The type I (Example 2), III (Example 3), V (Example 4) and VI (Example 5) crystals (each about 20 mg) of 1-((1R,2R)-2-hydroxy-4,4-dimethyl-1,2,3,4-tetrahydronaphthalen-1-yl)-3-(5-methyl-6-(2-methylpyrimidin-5-yl)-2-phenylpyridin-3-yl)urea obtained in the above Examples 2 to 5 were stored in glass bottles under the respective conditions described in Table 7. After completion of the storage period, the retrieved sample was confirmed on the purity by high performance liquid chromatography and on the crystal form by powder X-ray diffraction analysis as in the Examples.

[3] = Determination of equilibrium solubility in phosphate buffer solution with pH 6.8; assay type: physicochemical; details: pH 6.8 phosphate buffer, 37° C., mean value of three measurements
Description: (Test Example 1) Determination of Equilibrium Solubility (Determination of Solubility in Phosphate Buffer Solution with pH 6.8)
Each of the equilibrium solubilities (solubility in phosphate buffer solution with pH 6.8) of Type I (Example 2), III (Example 3), V (Example 4) and VI crystals (Example 5) of 1-((1R,2R)-2-hydroxy-4,4-dimethyl-1,2,3,4-tetrahydronaphthalen-1-yl)-3-(5-methyl-6-(2-methylpyrimidin-5-yl)-2-phenylpyridin-3-yl)urea obtained in the above (Example 2) to (Example 5) was determined as follows:
Water was added a weighed potassium dihydrogen phosphate of 2.7 g to make 100 mL volume to prepare 0.2 mol/L potassium dihydrogen phosphate solution. Water was added a weighed disodium hydrogen phosphate […] of 7.2 g to make 100 mL volume to prepare 0.2 mol/L disodium hydrogen phosphate solution. A pH 6.8 phosphate buffer solution was prepared by diluting a mixture of 0.2 mol/L potassium dihydrogen phosphate solution (14.8 mL) and 0.2 mol/L disodium hydrogen phosphate solution (10.0 mL) with water (173.6 mL).
Approximately 1 mg of the each crystal from (Example 2) to (Example 5) was weighed into a screw tube, and a pH 6.8 phosphate buffer solution (1 mL) was added. An isothermal shaker (M-BR-022UP) was used to incubate the sample at 37° C. and 1000 rpm for 24 hours. 100 μL solution were sampled at 1, 2, 6, and 24 hours after the start of incubation, and were filtered using a centrifuge (HITACHI, Himac cF 9RX, at 25° C., at 1500 rpm, for 30 seconds) with a filter (Millipore: Multiscreen, MSSLBPC10) so as to remove insoluble materials. A 20 μL of the filtrate was quantified, and diluted with a solution (180 μL, pH 9.0) of 20 vol % tetrahydrofuran and 80 vol % ammonium bicarbonate aqueous solution (10 mM). A 10 μL of the prepared solution was quantified, and diluted with a solution (190 μL, pH 9.0) of 20 vol % tetrahydrofuran and 80 vol % ammonium bicarbonate aqueous solution (10 mM). The prepared solution was analyzed by ultra performance liquid chromatography (UPLC) under the following measurement conditions, and the concentration of the compound in the solution was calculated based on a previously prepared calibration curve. Three times of measurements were made for each example compound, and the mean values and standard deviations of the three measurements are shown as a result in Table 6.
<UPLC measurement conditions> Equipment: ACQUITY UPLC H-Class (Waters) Detector: PDA (200-500 nm) Column: BEH C18 2.1×50 mm Measurement wavelength: 270 nm Column temperature: 40° C. Injection amount: 10 μL Mobile phase: • Solvent A, acetonitrile; • Solvent B, 10 mM ammonium bicarbonate aqueous solution (pH 9.0) Gradient conditions: […]

[4] = Shielded from light by aluminum foil, 0.5 ICH
[5] = Shielded from light by aluminum foil, 1 ICH
[6] = Shielded from light by aluminum foil, Before the test
[7] = 25° C./60% RH, closed for 1 month
[8] = 25° C./60% RH, open for 1 month
[9] = 40° C./75% RH, closed for 1 month
[10] = 40° C./75% RH, open for 1 month

Cc1ncc(-c2nc(-c3ccccc3)c(NC(=O)N[C@@H]3c4ccccc4C(C)(C)C[C@H]3O)cc2C)cn1 [Example 1, 1-((1R,2R)-2-hydroxy-4,4-dimethyl-1,2,3,4-tetrahydronaphthalen-1-yl)-3-(5-methyl-6-(2-methylpyrimidin-5-yl)-2-phenylpyridin-3-yl)urea]
Abnormalities in the safety test [1]: no abnormalities
TrkA inhibitory effect (human TrkA protein; result in words): excellent

Cc1ncc(-c2nc(-c3ccccc3)c(NC(=O)N[C@@H]3c4ccccc4C(C)(C)C[C@H]3O)cc2C)cn1 [Example 3, 1-((1R,2R)-2-hydroxy-4,4-dimethyl-1,2,3,4-tetrahydronaphthalen-1-yl)-3-(5-methyl-6-(2-methylpyrimidin-5-yl)-2-phenylpyridin-3-yl)urea]
Chemical purity (%) ([2]; Exposure, 0.5 ICH (5-day)): 100.0%
Crystalline form after completion of storage period ([2]; Exposure, 0.5 ICH (5-day)): Type III crystal
Chemical purity (%) ([2]; Exposure, 1 ICH (10-day)): 100.0%
Crystalline form after completion of storage period ([2]; Exposure, 1 ICH (10-day)): Type III crystal
Chemical purity (%) ([2]; Exposure, Before the test): 100.0%
Crystalline form after completion of storage period ([2]; Exposure, Before the test): Type III crystal
Chemical purity (%) [2, 4]: 100.0%
Crystalline form after completion of storage period [2, 4]: Type III crystal
Chemical purity (%) [2, 5]: 100.0%
Crystalline form after completion of storage period [2, 5]: Type III crystal
Chemical purity (%) [2, 6]: 100.0%
Crystalline form after completion of storage period [2, 6]: Type III crystal
Stability against light ([2]; result in words, listed as type III crystal): stable against light
IC50 (human TrkA protein; TrkA enzyme, Kinase Tracer 236, TR-FRET): ≤ 50 nM
Chemical purity (%) (Storage stability test; [7]): 100.00%
Crystalline form after completion of storage period (Storage stability test; [7]): Type III crystal
Chemical purity (%) (Storage stability test; [8]): 100.00%
Crystalline form after completion of storage period (Storage stability test; [8]): Type III crystal
Chemical purity (%) (Storage stability test; [9]): 100.00%
Crystalline form after completion of storage period (Storage stability test; [9]): Type III crystal
Chemical purity (%) (Storage stability test; [10]): 100.00%
Crystalline form after completion of storage period (Storage stability test; [10]): Type III crystal
Chemical purity (%) (Storage stability test; Before the test): 100.00%
Crystalline form after completion of storage period (Storage stability test; Before the test): Type III crystal
Solubility [3]: 66.0 µg/mL (≈ 134 µM)
